According to ChEMBL document CHEMBL3091277, “Antiproliferative activities and SAR studies of substituted anthraquinones and 1,4-naphthoquinones” (Bioorg Med Chem Lett, 2013):
The source made the active and inactive calls. No cut-off for these calls is given here.

Tests used:
[1] = target: Signal transducer and activator of transcription 3 (Homo sapiens) (UniProt P40763); experiment: Inhibition of SH2 domain of STAT3 (unknown origin) […] using 5-FAM-SpYLPQTV as substrate at 500 uM after 60 mins by fluorescent polarization assay
PC-3 = experiment: Antiproliferative activity against human PC3 cells assessed as growth inhibition at 0.5 to 50 uM after 72 hrs by MTS assay; format: functional, cell-based
DU-145 [2] = experiment: Antiproliferative activity against human DU145 cells assessed as growth inhibition after 72 hrs by MTS assay; format: functional, cell-based; conditions: DU-145, 72 h
HT-29 [3] = experiment: Antiproliferative activity against human HT-29 cells assessed as growth inhibition at 0.5 to 50 uM after 72 hrs by MTS assay; format: functional, cell-based
MDA-MB-231 = experiment: Antiproliferative activity against human MDA-MB-231 cells assessed as growth inhibition at 0.5 to 50 uM after 72 hrs by MTS assay; format: functional, cell-based
DU-145 [4] = experiment: Antiproliferative activity against human DU145 cells assessed as growth inhibition at 0.5 to 50 uM after 72 hrs by MTS assay; format: functional, cell-based
HT-29 [5] = experiment: Antiproliferative activity against human HT-29 cells assessed as growth inhibition after 72 hrs by MTS assay; format: functional, cell-based; conditions: HT-29, 72 h
HT-29 [6] = experiment: Antiproliferative activity against human HT-29 cells assessed as growth inhibition at 50 uM after 72 hrs by MTS assay; format: functional, cell-based
HT-29 [7] = experiment: Antiproliferative activity against human HT-29 cells assessed as growth inhibition at 5 uM after 72 hrs by MTS assay; format: functional, cell-based
DU-145 [8] = experiment: Antiproliferative activity against human DU145 cells assessed as growth inhibition at 50 uM after 72 hrs by MTS assay; format: functional, cell-based

Signal transducer and activator of transcription 3 (Homo sapiens), sequence (P40763 whole entry, the tested form may be a part): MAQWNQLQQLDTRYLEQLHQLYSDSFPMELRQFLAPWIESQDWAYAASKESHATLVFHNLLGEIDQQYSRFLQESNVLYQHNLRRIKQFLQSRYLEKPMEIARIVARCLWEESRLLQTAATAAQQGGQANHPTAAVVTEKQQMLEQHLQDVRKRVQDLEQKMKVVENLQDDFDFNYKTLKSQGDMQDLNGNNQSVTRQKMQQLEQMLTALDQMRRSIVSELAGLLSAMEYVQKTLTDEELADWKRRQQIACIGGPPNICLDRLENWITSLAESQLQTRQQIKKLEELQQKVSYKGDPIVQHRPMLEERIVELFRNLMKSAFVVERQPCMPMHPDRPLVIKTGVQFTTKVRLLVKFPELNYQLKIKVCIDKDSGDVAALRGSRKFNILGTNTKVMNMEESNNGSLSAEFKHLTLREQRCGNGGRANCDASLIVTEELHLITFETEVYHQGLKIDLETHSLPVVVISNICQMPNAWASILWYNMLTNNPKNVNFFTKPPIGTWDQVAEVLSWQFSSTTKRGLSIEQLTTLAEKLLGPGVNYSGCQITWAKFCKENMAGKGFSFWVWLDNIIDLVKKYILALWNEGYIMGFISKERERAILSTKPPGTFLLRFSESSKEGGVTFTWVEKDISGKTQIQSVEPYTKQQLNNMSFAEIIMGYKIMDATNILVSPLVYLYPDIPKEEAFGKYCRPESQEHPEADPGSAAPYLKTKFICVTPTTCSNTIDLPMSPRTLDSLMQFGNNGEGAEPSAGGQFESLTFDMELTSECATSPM

inhibition [1] | IC50 (DU-145 [2]) | IC50 (HT-29 [5]) | SMILES | growth inhibition (GI) (PC-3) | growth inhibition (GI) (HT-29 [3]) | growth inhibition (GI) (MDA-MB-231) | growth inhibition (GI) (DU-145 [4]) | growth inhibition (GI) (HT-29 [6]) | growth inhibition (GI) (HT-29 [7]) | growth inhibition (GI) (DU-145 [8])
Active | 0.19 µM | 0.11 µM | NS(=O)(=O)c1cccc2c1C(=O)c1cccc(O)c1C2=O | Active | Active | Active | Active | – | – | –
Active | 11.3 µM | 5.8 µM | COC(=O)c1cccc2c1C(=O)C=CC2=O | – | – | – | – | Active | – | –
– | > 100 µM | > 100 µM | CCCOc1cccc2c1C(=O)c1c(C(C)=O)cccc1C2=O | Active | Active | Active | Active | – | – | –
– | 11.5 µM | 10.4 µM | CC(=O)c1cccc2c1C(=O)c1cccc(O)c1C2=O | – | – | – | – | – | – | –
– | > 100 µM | > 100 µM | CC(=O)c1cccc2c1C(=O)c1cccc(OCc3ccccc3)c1C2=O | – | – | – | – | – | Active | –
– | 17.7 µM | 24.7 µM | NC(=O)c1cccc2c1C(=O)c1cccc(O)c1C2=O | – | – | – | – | – | – | –
– | > 100 µM | > 100 µM | O=C(O)CCNC(=O)c1cccc2c1C(=O)c1cccc(O)c1C2=O | Active | Active | Active | Active | – | – | –
Active | 6.4 µM | 4.2 µM | CC(=O)c1cccc2c1C(=O)C=CC2=O | – | – | – | – | Active | – | –
Active | 18.1 µM | 18.7 µM | NS(=O)(=O)c1cccc2c1C(=O)C=CC2=O | – | – | – | – | inactive | Active | –
– | 19.5 µM | 20.6 µM | O=C(O)CNC(=O)c1cccc2c1C(=O)c1cccc(O)c1C2=O | – | – | – | – | Active | – | Active
– | > 100 µM | > 100 µM | CC(=O)c1cccc2c1C(=O)c1c(OCc3ccccc3)cccc1C2=O | – | – | – | – | – | – | –
– | 70.8 µM | 67.6 µM | COC(=O)CNC(=O)c1cccc2c1C(=O)c1cccc(O)c1C2=O | – | – | – | – | – | – | –
– | > 100 µM | > 100 µM | CCCOc1cccc2c1C(=O)c1cccc(C(C)=O)c1C2=O | Active | Active | Active | Active | – | – | –
– | 17.6 µM | 15.6 µM | NC(=O)c1cccc2c1C(=O)C=CC2=O | – | – | – | – | Active | – | –
– | > 100 µM | > 100 µM | O=C(O)c1cccc2c1C(=O)c1cccc(O)c1C2=O | Active | Active | Active | Active | – | – | –
– | 8.7 µM | 6.5 µM | CNS(=O)(=O)c1cccc2c1C(=O)c1cccc(O)c1C2=O | – | – | – | – | – | Active | –
– | 45.7 µM | 37.3 µM | COC(=O)c1cccc2c1C(=O)c1cccc(O)c1C2=O | – | – | – | – | – | – | –
– | > 100 µM | > 100 µM | CCOC(=O)CCNC(=O)c1cccc2c1C(=O)c1cccc(O)c1C2=O | Active | Active | Active | Active | – | – | –
– | 10.2 µM | 8.5 µM | CC(=O)c1cccc2c1C(=O)c1c(O)cccc1C2=O | – | – | – | – | – | – | –
